Assays:
[1] = assay type: in vivo, dog; conditions: intravenous bolus 2 mg/kg; 2 dogs
[2] = assay type: in vivo, cat; conditions: cats with CHF that received pimobendan; −561 in cats that did not; P = 0.045
[3] = set-up: species or system horses (Thoroughbreds); conditions: in vivo
[4] = dog, in vivo; cited from earlier work
[5] = tested on: canine glioblastoma J3T cells; test: cells; assay type: cell-based, dog; conditions: Canis lupus familiaris, 72 h, read-out: mean IC50
tubulin = assay type: cell-based, dog
[6] = tested on: FOSCC cell lines (SCCF1, SCCF2, SCCF3); assay type: cell-based, cat; conditions: MTT assay
Bcl11b = assay type: cell-based, cat
VEGF = assay type: cell-based, cat

CCN(CC)CC(=O)Nc1c(C)cccc1C [lidocaine]
response of polymorphic ventricular tachycardia [1]: no improvement was found

COc1ccc(-c2nc3ccc(C4=NNC(=O)CC4C)cc3[nH]2)cc1 (stereo not drawn) [pimobendan]
change in NT‐proBNP concentration from admission to discharge (median) [2]: -821 pmol/L

COc1ccc2[nH]c([S+]([O-])Cc3ncc(C)c(OC)c3C)nc2c1 (stereo not drawn) [OME, omeprazole]
gastric ulcer scores [3]: significantly decreased

N.N.[Cl][Pt][Cl] [cisplatin]
reported MST for invasive thyroid carcinoma [4]: 98 days

COC(=O)Nc1nc2ccc(Sc3ccccc3)cc2[nH]1 [FBZ, fenbendazole]
IC50 [5]: 550 nM
tubulin depolymerization versus untreated control (tubulin): increased depolymerization of tubulin

Cc1nc(Nc2ncc(C(=O)Nc3c(C)cccc3Cl)s2)cc(N2CCN(CCO)CC2)n1 [Dasatinib, dasatinib]
cell viability [6]: lowered cell viability
activation (phosphorylation) of Bcl11b (Bcl11b): inhibited activation of Bcl11b
VEGF production (VEGF): suppressed VEGF production

— article PMC5260423 (Journal of Veterinary Internal Medicine, 2016)
